Literature values, collected in patent publication US20140037700A1, “Composition and Method for Enhancing an Immune Response” (priority 2011, published 2014).

Columns and labels:
[1] = system: tuberculosis growth in human monocytes; parameters: dose or concentration left out as unconfirmed; settings: alone, in vitro; Denis et al.
[2] = in the presence of a normal or high calcium diet; DeLuca et al.
[3] = system: anti-microbial peptide cathelicidin; settings: exposure of macrophages
[4] = system: M. tb cells in NRP2 state; settings: oxygen 0.06% of normal saturation (anaerobic)
[5] = combined with liposomes
[6] = system: M. tuberculosis survival within macrophages
TACO gene transcription = settings: human macrophages

C=C1/C(=C\C=C2/CCC[C@]3(C)[C@@H]([C@H](C)CCCC(C)(C)O)CC[C@@H]23)C[C@@H](O)C[C@@H]1O [Calcitriol, 1,25-dihydroxyvitamin D]
ability of human monocytes to restrict tuberculosis growth [1]: significant ability to restrict tuberculosis growth | prevention or suppression of autoimmune disease in models [2]: prevent or markedly suppress | expression of anti-microbial peptide cathelicidin [3]: induces expression | bacillary replication in macrophages (M.tb within macrophages; even at extremely low concentrations, Crowle et al.): slow and stop bacillary replication | colony forming units (M.tb within macrophages; primary human macrophages infected with virulent M. tb): reduced colony forming units

NNC(=O)c1ccncc1 [isoniazid]
susceptibility of NRP2 cells to antibiotic [4]: resistant

Cc1ncc([N+](=O)[O-])n1CCO [metronidazole]
susceptibility of NRP2 cells to antibiotic [4]: sensitive

Monophosphoryl lipid A
mucosal immunoprotective responses [5]: induce mucosal immunoprotective responses

epigallocatechin-3-gallate [EGCG]
mycobacterium survival within macrophages ([6]; in vitro, flow cytometry and colony counts): substantially reduced mycobacterium survival | M. tuberculosis survival within macrophages ([6]; used prior to M. tb exposure in vitro): completely inhibits | TACO gene transcription (TACO gene transcription): down-regulates TACO gene transcription in a dose-dependent manner
